Target: T1, human kinase Mps-1 (Homo sapiens, UniProt P33981)
T1 construct: N-terminally GST-tagged human full length recombinant Mps-1 kinase; GST (N); purchased Invitrogen, Karslruhe, Germany PV4071
T1 sequence (P33981 1-857): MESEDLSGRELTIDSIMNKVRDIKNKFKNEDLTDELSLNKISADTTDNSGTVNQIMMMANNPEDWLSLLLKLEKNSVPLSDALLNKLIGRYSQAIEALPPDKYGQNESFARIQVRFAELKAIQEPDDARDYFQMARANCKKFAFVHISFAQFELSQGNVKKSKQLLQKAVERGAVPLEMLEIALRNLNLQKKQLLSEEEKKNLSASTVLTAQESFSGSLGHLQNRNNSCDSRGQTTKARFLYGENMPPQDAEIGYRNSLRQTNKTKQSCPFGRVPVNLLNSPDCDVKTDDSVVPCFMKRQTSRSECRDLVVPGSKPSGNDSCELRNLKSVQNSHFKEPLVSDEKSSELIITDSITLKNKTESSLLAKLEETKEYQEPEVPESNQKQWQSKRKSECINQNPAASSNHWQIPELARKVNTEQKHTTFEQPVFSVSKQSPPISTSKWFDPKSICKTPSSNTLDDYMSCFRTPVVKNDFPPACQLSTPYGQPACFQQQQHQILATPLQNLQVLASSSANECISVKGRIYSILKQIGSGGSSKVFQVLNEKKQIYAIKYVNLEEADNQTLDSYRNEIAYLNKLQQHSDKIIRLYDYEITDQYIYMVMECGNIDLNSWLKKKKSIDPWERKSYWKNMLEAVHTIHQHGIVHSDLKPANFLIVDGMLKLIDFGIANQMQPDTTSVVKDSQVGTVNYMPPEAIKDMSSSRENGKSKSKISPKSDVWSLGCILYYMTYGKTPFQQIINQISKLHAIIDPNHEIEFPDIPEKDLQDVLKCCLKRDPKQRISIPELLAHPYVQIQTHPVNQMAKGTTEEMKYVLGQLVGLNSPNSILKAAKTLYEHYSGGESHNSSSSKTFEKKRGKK
Assay: Mps-1 kinase assay (TR-FRET)
Format: biochemical
Details: Mps-1 TR-FRET kinase assay; avg; read-out: Mps1 avg (IC50 [mol/l])
Method in brief: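 Inhibition normalised between uninhibited reaction (0%) and enzyme-free wells (100%), using the blank-corrected TR-FRET 665/620 nm ratio after EDTA stop. Reaction: ~0.5 nM GST-Mps-1 full length, 10 μM ATP, 1 μM biotin-peptide, 60 min at 22 °C, after 15 min compound pre-binding, pH 7.7.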

Row | IC50 | SMILES
1 | > 20 µM | Cc1nsc(Nc2cnc(C(F)(F)F)cn2)c1C(=O)Nc1ccc(OC[C@@H]2CCCN(CC(F)F)C2)nc1 [Example 375, N-(6-{[(3R)-1-(2,2-difluoroethyl)piperidin-3-yl]methoxy}pyridin-3-yl)-3-methyl-5-{[5-(trifluoromethyl)pyrazin-2-yl]amino}-1,2-thiazole-4-carboxamide]
2 | > 20 µM | Cc1nsc(Nc2cnc(C(F)(F)F)cn2)c1C(=O)Nc1ccc(OC[C@@H]2CCCN(CC(F)(F)F)C2)nc1 [Example 376, 3-methyl-N-(6-{[(3R)-1-(2,2,2-trifluoroethyl)piperidin-3-yl]methoxy}pyridin-3-yl)-5-{[5-(trifluoromethyl)pyrazin-2-yl]amino}-1,2-thiazole-4-carboxamide]
3 | > 20 µM | Cc1nsc(Nc2cnc(C(F)(F)F)cn2)c1C(=O)Nc1ccc(O[C@H]2CCN(CC(F)F)C2)nc1 [Example 382, N-(6-{[(3S)-1-(2,2-difluoroethyl)pyrrolidin-3-yl]oxy}pyridin-3-yl)-3-methyl-5-{[5-(trifluoromethyl)pyrazin-2-yl]amino}-1,2-thiazole-4-carboxamide]
4 | ≥ 20 µM | Cc1nsc(Nc2cnc(C(F)(F)F)cn2)c1C(=O)Nc1ccc(O[C@@H]2CCCN(CCC(F)(F)F)C2)nc1 [Example 387, 3-methyl-5-{[5-(trifluoromethyl)pyrazin-2-yl]amino}-N-(6-{[(3R)-1-(3,3,3-trifluoropropyl)piperidin-3-yl]oxy}pyridin-3-yl)-1,2-thiazole-4-carboxamide]

Second part, the compound before the results:

Row | SMILES | IC50
5 | Cc1nsc(Nc2cnc(C(F)(F)F)cn2)c1C(=O)Nc1ccc(N2CCN(CC(F)F)CC2)cn1 [Example 372, N-{5-[4-(2,2-difluoroethyl)piperazin-1-yl]pyridin-2-yl}-3-methyl-5-{[5-(trifluoromethyl)pyrazin-2-yl]amino}-1,2-thiazole-4-carboxamide] | > 20 µM
6 | Cc1nsc(Nc2cnc(C(F)(F)F)cn2)c1C(=O)Nc1ccc(N2CCN(CC(F)(F)F)CC2)cn1 [Example 373, 3-methyl-N-{5-[4-(2,2,2-trifluoroethyl)piperazin-1-yl]pyridin-2-yl}-5-{[5-(trifluoromethyl)pyrazin-2-yl]amino}-1,2-thiazole-4-carboxamide] | > 20 µM
7 | Cc1nsc(Nc2cnc(C(F)(F)F)cn2)c1C(=O)Nc1ccc(N2CCN(CCC(F)(F)F)CC2)cn1 [Example 374, 3-methyl-5-{[5-(trifluoromethyl)pyrazin-2-yl]amino}-N-{5-[4-(3,3,3-trifluoropropyl)piperazin-1-yl]pyridin-2-yl}-1,2-thiazole-4-carboxamide] | > 20 µM

From US20170334899A1, “AMINO-SUBSTITUTED ISOTHIAZOLES” (Bayer Pharma Aktiengesellschaft, priority 2014, published 2017)
